# Measurements from US20140328771A1, “METHOD FOR PRODUCING 3-MENTHOXY PROPANOL AND COMPOSITIONS FOR IMPARTING COOLING SENSATION” (Takasago International Corporation, priority 2011, published 2014).
# Assay: Oral sensory evaluation of 50-ppm aqueous solutions by ten special panelists
# Type: in vivo, human
# Conditions: 50-ppm aqueous solution
# Method: Using 3-1-menthoxy-1-propanol (1) obtained in Example 1, the mixture (2) of 3-1-menthoxy-1-propanol and 1-1-menthoxy-2-propanol at a weight ratio of 93:7 obtained in Example 2, and 1-1-menthoxy-2-propanol (3) obtained in Example 1, 50-ppm aqueous solutions were prepared.
# The three 50-ppm aqueous solutions were subjected to oral sensory evaluation by ten special panelists with five or more years of experience.
structure (smiles),measurement,setting,value
"CC1CCC(C(C)C)C(OCCCO)C1 (centres unmarked) [(1), 3-1-menthoxy-1-propanol]",refreshing sensation,all the ten panelists,marked refreshing sensation
same,strength and persistence of refreshing sensation,seven of the ten panelists,stronger and long-lasting refreshing sensation
